In patent US6096711A, “Hsp72 induction and applications” (priority 1998, dated 2000):
pKi: −log10 of the molar value. Non-standard residues stand in square brackets, D forms with d. Residues, ends and D or L forms follow the SMILES beside them. *: point of attachment. Nle = CCCC[C@H](N)C(=O)O; Cbz = O=C(OCc1ccccc1)*

How the values were obtained:
Hsp72 [1] = test: Hsp72 induction in U937 cells; assay type: cell-based, human; set-up: accumulation of Hsp72: dose or concentration left out as unconfirmed; conditions: for levels of Hsp72: incubation of U937 cells with the compound
Method: (§1) U937 human lymphoid tumor cells were grown in RPMI-1640 medium with 10% fetal bovine serum and were used for experiments while in the mid log-phase (3-7.105 cells/ml). 293 human cells were grown in DMEM medium with 10% fetal bovine serum and were used in transient transfection experiments while at 40% of confluence. MG132 was purchased from Biomol Res Lab, Inc, PA. aLLN was purchased from Sigma, MO. MG132 analogs were synthesized and purified by HPLC. Anti-hsp72 antibody (SPA810) was from StressGene Biotechnologies Corp (Canada), anti-p53 antibody (PAb1801) was from SantaCruz Biotechnology, Inc, Calif.

[2] = system: chymotrypsin-like activity of the proteasome; conditions: cited from earlier work; for pKi: slow binding inhibitors, Vinitsky et al.
Hsp72 [3] = test: Hsp72 induction in young and old IMR90 cells; assay type: cell-based, Human; conditions: compared with mild heat shock of young cells
Method: Human lung fibroblasts IMR90 which underwent either 12-17 divisions ("young" cells) or 62-67 divisions ("old" cells) were grown in MEM medium supplemented with 20% bovine fetal serum and 2mM glutamine. The cells were seeded at a density of 1.105 cells/35 mm plate and grown at 37° C. in an atmosphere of 95% air and 5% CO2. Cultures were split when cell density reached confluency. MG132 was purchased from Biomol Res Lab, Inc, PA. Anti-Hsp72 antibody (SPA810) was from StressGene Biotechnologies Corp (Canada).
(§2) Young and old cells were incubated with either […] of MG132 for 5 hours, washed with PBS and incubated in a fresh medium for an additional 12 hours.

JNK [4] = test: JNK assay in U937 cells; assay type: cell-based, human; set-up: JNK activation by the compound itself: dose or concentration left out as unconfirmed
Method: as §1
JNK activity was assayed using GST-c-Jun protein as a substrate after immunoprecipitation with anti-JNK1 antibodies (sc-474, Santa Cruz Biotechnology, Inc., Calif.), or anti-HA antibody for transfected JNK (Berkley Antibody Company). Briefly, cells were lysed in a buffer containing 20 mM Tris-HCl, pH 7.4, 50 mM NaCl, 2 mM EDTA, 1% Triton X-100, 25 mM b-glycerophosphate, 10 mM NaF, 1 mM Na3VO4, and protease inhibitors (1 mM PMSF and 25 mg/ml each of aprotenin, pepstatin, leupeptin). After immunoprecipitation with anti-JNK1 or anti-HA antibody and protein A-sepharose for 2 h at 4° C. and washing, kinase reaction was carried out in a buffer containing 25 mM HEPES, 10 mM MgCl2, 2 mM DTT, 25 mM b-glycerophosphate, 2 mM Na3 VO4 and 25 mCi 32P-g-ATP at 37° C. for 10 min. Samples were then subjected to SDS-PAGE followed by transfer to a nitrocellulose membrane and autoradiography. This membrane was later used for immunoblot with anti-JNK1 antibody to ensure that equal amounts of the kinase were immunoprecipitated. p38 kinase activity was determined by Western blot with polyclonal antibody (New England Biolabs, MA) specifically recognizing the phosphorylated (active) form of p38. Later the same blot was treated with anti-p38 antibody (New England Biolabs, Mass.) to assure equal loading of the kinase on different lanes.

[5] = system: Human lung fibroblasts IMR90; test: Heat-induced apoptosis in IMR90 cells; assay type: cell-based; conditions: young and old IMR90 cells pretreated with MG132
Method: as §2
Young and old cells were subjected to heat shock at 45° C. for different time periods followed by incubation at 37° C. After 24 hours cells were stained with Hoechst 33342 according to manufacturer's specifications.

JNK [6] = test: JNK activation by heat shock in IMR90 cells pretreated with MG132; assay type: cell-based, Human
Method: as §2
JNK activity was assayed using GST-c-Jun protein as a substrate after immunoprecipitation with anti-JNK1 antibodies (sc-474, Santa Cruz Biotechnology, Inc., CA). Briefly, cells were lysed in a buffer containing 20 mm Tris-HCl, pH 7.4, 50 mm NaCl, 2 mm EDTA, 1% Triton X-100, 25 mm b-glycerophosphate, 10 mm NaF, 1 mm Na3VO4, and protease inhibitors (1 mm PMSF and 25 mg/ml each of aprotenin, pepstatin, leupeptin). After immunoprecipitation with anti-JNK1 antibody and protein A-sepharose for 2 h at 4° C. and washing, kinase reaction was carried out in a buffer containing 25 mm HEPES, 10 mm MgCl2, 2 mm DTT, 25 mm b-glycerophosphate, 2 mm Na3VO4 and 25 mCi 32P-g-ATP at 37° C. for 10 min. Then the samples were subjected to SDS-PAGE followed by transfer to a nitrocellulose membrane and autoradiography. This membrane was later used for immunoblot with anti-JNK1 antibody to ensure that equal amounts of the kinase were immunoprecipitated.

Hsp27 = Hsp27 induction in U937 cells; assay type: cell-based, human; conditions: incubation of U937 cells with MG132
Method: as §1

[7] = system: U937 human lymphoid tumor cells; test: Apoptosis / cell death of U937 cells; assay type: cell-based; set-up: induction of apoptosis by the compound itself: dose or concentration left out as unconfirmed
Method: as §1
PARP degradation was followed by Western blotting with anti-PARP monoclonal antibodies (C2-10, G. Poirier, Montreal, Canada). Apoptosis of 293 cells was detected by cleavage of a truncated form of Ul-70 kDa protein d12 (Romac, J. M. J. et al., Mol Cell Biol 14: 4662-4670 (1994)). Cells were transfected by calcium phosphate method with a plasmid encoding d12 tagged with T7 epitope alone or together with a dominant-negative mutant forms of SEK1 (K/R) or c-jun (TAM67). After 48 hours cells were either treated with […] MG132 or subjected to heat shock at 45° C. for 15 min. After additional 24 hours cells were lysed and cleavage of d12 was detected by Western blot with anti-T7 epitope antibody.

Hsp40 = Hsp40 induction in U937 cells; assay type: cell-based, human; conditions: incubation of U937 cells with MG132
Method: as §1

## CC(C)C[C@H](NC(=O)[C@H](CC(C)C)NC(=O)[C@H](CC(C)C)NC(=O)OCc1ccccc1)C(N)=O [Z-LLL-amide] (Cbz-Leu-Leu-Leu-NH2)
Hsp72 [1]
  levels of Hsp72: did not lead to any significant induction

## CC(C)C[C@@H](C=O)NC(=O)CNC(=O)CNC(=O)OCc1ccccc1 [Z-Gly-Gly-Leu-H] (Cbz-Gly-Gly-Leu-aldehyde)
[2]; Orlowski 1990
  inhibition of the chymotrypsin-like activity of the proteasome: inhibits the chymotrypsin-like activity of the proteasome

## CC(C)[C@H](O)[C@@]12NC(=O)[C@H](C)[C@@H]1OC2=O [lactacystin-β-lacton]
Hsp72 [1]
  levels of Hsp72: dramatically increase

## CCOC(=O)C(=O)[C@H](Cc1ccccc1)NC(=O)[C@H](CC(C)C)NC(=O)[C@H](CC(C)C)NC(=O)OCc1ccccc1 [Z-Leu-Leu-Phe-COOEt]
[2]
  pKi: 4.28

## CC(C)CC(C=CS(C)(=O)=O)NC(=O)C(CC(C)C)NC(=O)C(CC(C)C)NC(=O)Cc1cc(I)c(O)c([N+](=O)[O-])c1 (centres unmarked) [NIP-L3VS]
Hsp72 [1]
  levels of Hsp72: dramatically increase

## CC(C)C[C@@H](C=O)NC(=O)[C@H](CC(C)C)NC(=O)[C@H](CC(C)C)NC(=O)OCc1ccccc1 [MG132] (Cbz-Leu-Leu-Leu-aldehyde)
Hsp72 [3]
  Hsp72 levels induced: exceeded those triggered in young cells by a mild heat shock
JNK [4]; followed by withdrawal
  JNK activation by the compound itself: activated JNK only temporally
JNK [4]; pretreated versus untreated U937 cells
  JNK activation by severe heat shock: much lesser activation
JNK [4]; pretreatment with MG132
  activation of JNK by TNF: strongly suppressed
  activation of JNK by ethanol: strongly suppressed
[5]
  protection from heat-induced apoptosis: protected from apoptosis
JNK [6]
  JNK activation by heat shock of various severity: strongly suppressed in both young and old cells
Hsp27
  induction of Hsp27: appeared to be induced
[7]; followed by withdrawal
  induction of apoptosis by the compound itself: insufficient to induce apoptosis
[7]; long incubation of U937 cells
  effect of long incubation on JNK and apoptosis: prolonged activation of JNK leading to apoptosis
[7]; pretreatment with MG132
  TNF-induced apoptosis: did not rescue cells from TNF-induced apoptosis and even potentiated it
  cell death caused by ethanol: suppressed cell death caused by ethanol
[7]; pretreatment with MG132, about 40% without pretreatment
  extent of cell death after heat shock: negligible level
Hsp72 [1]; after several hours of recovery
  accumulation of Hsp72: strong accumulation of Hsp72
Hsp72 [1]
  levels of Hsp72: dramatically increase
Hsp40
  induction of Hsp40: appeared to be induced

## CC(C)C[C@H](NC(=O)OCc1ccccc1)C(=O)N[C@@H](CC(C)C)C(=O)N[C@H](C=O)Cc1ccccc1 [Z-LLF-H, (benzyloxycarbonyl)-Leu-Leu-phenylalaninal] (Cbz-Leu-Leu-Phe-aldehyde)
[2]
  pKi: 6.34

## CCCC[C@@H](C=O)NC(=O)[C@H](CC(C)C)NC(=O)[C@H](CC(C)C)NC(C)=O [aLLN] (Ac-Leu-Leu-[Nle]-aldehyde)
Hsp72 [1]
  levels of Hsp72: dramatically increase
